Consider 1 molecule from ChEMBL document CHEMBL1255498, “Moxifloxacin pharmacokinetics/pharmacodynamics and optimal dose and susceptibility breakpoint identification for treatment of disseminated Mycobacterium avium infection” (Antimicrob Agents Chemother, 2010).

As a reminder, the EC50 is the midpoint of the concentration-response curve.

A short description of assay [1]: microbe, parasite or virus in culture. Conditions: Mycobacterium avium, ATCC 700898.
For the next assay, the system named is Mycobacterium avium. The assay can be described thus: Antimicrobial activity against Mycobacterium avium by CLSI method.
The nature of assay [2]: Antimicrobial activity against Mycobacterium avium subsp. hominissuis ATCC 700898 infected in human THP1 cells in presence of 10% FBS. It is filed as functional, cell-based. Conditions: ATCC 700898, THP-1.
A short description of assay [3]: microbe, parasite or virus in culture. The note with it: Mycobacterium avium, ATCC 700898, 168 h.
Assay [4] in a line: Antimicrobial activity against Mycobacterium avium subsp. hominissuis ATCC 700898 infected in human THP1 cells in presence of 2% FBS. It is filed as functional, cell-based. Conditions: ATCC 700898, THP-1.
Assay [5] is described as follows: microbe, parasite or virus in culture. The note with it: Mycobacterium avium, ATCC 700898, 168 h. This is another data set of the same source.
Assay [6] is described as follows: Antimicrobial activity against Mycobacterium avium subsp. hominissuis ATCC 700898 infected in human THP1 cells in presence of 20% FBS. Format: functional, cell-based. Conditions: ATCC 700898, THP-1.

Molecules are shown by their SMILES. Values after ≈ are worked out from the molar mass of the structure shown.

`COc1c(N2C[C@@H]3CCCN[C@@H]3C2)c(F)cc2c(=O)c(C(=O)O)cn(C3CC3)c12` [MOXIFLOXACIN]: the MIC (in assay [1]; in the assay with Mycobacterium avium) was 1 µg/mL (≈ 2.49 µM) in each case. Also, the 50% effective concentration (EC50) in assay [2] was 5.07 µg/mL; in assay [3], 8.24 µg/mL (≈ 20.5 µM); in assay [4] it was 8.09 µg/mL; in assay [5], not below 32 µg/mL; in assay [6], 5.21 µg/mL.
